From patent US12534501B2, “Targeting deregulated Wnt signaling in cancer using stabilized alpha-helices of BCL-9” (Dana-Farber Cancer Institute, Inc., priority 2011, dated 2026)
Numbered stars: 1 amine (or outer) side, 2 acyl side, 3 side chain; on linkers, the order of the positions; unused ones are H or OH. Bridge positions count the residues as written; N and C are the ends. Square brackets hold non-standard residues; d marks the D form. Peptide text beside a SMILES is read from it. ξ: configuration not given here. ξαMeNle(6-ylidene) = CC(CCCC=[*:3])(N[*:1])C(=O)[*:2]; Nle = CCCC[C@H](N)C(=O)O

Legend:
β-catenin = target: T1, β-catenin (Homo sapiens, UniProt P35222); assay: Anti-FITC / anti-β-catenin co-immunoprecipitation from lysates of peptide-treated cells; type: cell-based; settings: FITC and β-catenin immunoprecipitation, in situ
T1 construct: endogenous in cells; host or cells: Colo320
T1 sequence (P35222 1-781): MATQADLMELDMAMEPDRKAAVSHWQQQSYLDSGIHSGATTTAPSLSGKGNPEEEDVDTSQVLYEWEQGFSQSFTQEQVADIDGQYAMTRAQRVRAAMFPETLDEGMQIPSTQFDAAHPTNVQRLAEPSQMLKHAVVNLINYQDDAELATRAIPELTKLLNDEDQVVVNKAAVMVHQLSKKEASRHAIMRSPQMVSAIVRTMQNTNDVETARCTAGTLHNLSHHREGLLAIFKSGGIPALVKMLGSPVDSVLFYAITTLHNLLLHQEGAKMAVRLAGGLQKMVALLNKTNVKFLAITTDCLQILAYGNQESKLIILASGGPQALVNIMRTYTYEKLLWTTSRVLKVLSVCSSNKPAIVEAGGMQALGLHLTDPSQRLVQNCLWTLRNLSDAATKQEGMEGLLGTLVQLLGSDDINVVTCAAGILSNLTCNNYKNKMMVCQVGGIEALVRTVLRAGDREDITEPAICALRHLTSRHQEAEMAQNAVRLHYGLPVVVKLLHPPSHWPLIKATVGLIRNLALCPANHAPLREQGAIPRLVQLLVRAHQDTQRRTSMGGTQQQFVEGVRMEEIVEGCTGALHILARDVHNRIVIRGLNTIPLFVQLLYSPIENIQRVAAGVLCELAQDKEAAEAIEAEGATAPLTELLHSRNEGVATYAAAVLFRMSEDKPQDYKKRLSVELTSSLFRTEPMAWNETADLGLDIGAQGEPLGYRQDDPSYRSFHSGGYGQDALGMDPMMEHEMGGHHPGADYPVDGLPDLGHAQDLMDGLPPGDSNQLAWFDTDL
Description: Western blotting, performed as described (Sukhdeo, K. et al. Proc Natl Acad Sci USA 104, 7516-21 (2007)), employed the following primary antibodies: BCL9 (6109) (Mani, M. et al. Cancer Res 69, 7577-86 (2009)), BCL9 (ab37305, Abcam), B9L (AF4967, R&D Systems), β-catenin (CAT5-H10, Zymed), FITC (ab19224, Abcam), Actin-HRP (C-11, Santa Cruz), Caspase3 (#9662, Cell Signaling), IκBα (#9242, Cell signaling), PARP (#9542, Cell Signaling), E-cadherin (#3195, Cell Signaling), and Lamin B (sc-6217, Santa Cruz). Horseradish peroxidase conjugated secondary antibodies were purchased from Santa Cruz and SouthernBiotech. Co-immunoprecipitation was performed as described (Walensky, L. D. et al. Science 305, 1466-70 (2004)). Briefly, cells were lysed in 50 mM Tris, 150 mM NaCl, and 1% CHAPS buffer containing protease and phosphatase inhibitors. Lysates were precleared with Protein A/G PLUS-agarose beads (Santa Cruz Biotechnologies) for 3 hours followed by overnight incubation at 4° C. with the respective antibodies. Agarose A/G beads were then added for 4 h, pelleted, and washed as described (Walensky, L. D. et al. Science 305, 1466-70 (2004)). See results in FIG. 1D, FIG. 1H, FIG. 2A, FIG. 8.

[1] = system: GFP-positive INA-6 cells in human bone chips of SCID-hu mice; assay: SCID-hu murine model of human MM; type: in vivo; settings: for shuIL-6R serum levels: 5 mg/kg local injection every other day; for tumor cell invasion outside the bone chip: histologic analysis
Experimental: In a second in vivo model, the impact of SAH-BCL9B treatment on the growth of INA-6 MM cells within a human bone graft implanted in the flank of SCID-hu mice was examined (Tassone, P. et al. Blood 106, 713-6 (2005)). GFP-labeled INA-6 cells (5×10^6), which express both BCL9 and β-catenin and are suppressed by SAH-BCL9B in vitro were injected into bone grafts four weeks after implantation. Two days later, cohorts of mice (n=5) were treated by local injection with vehicle (2.5% DMSO in D5W), SAH-BCL9B, or SAH-BCL9B(R359E) peptides (5 mg/kg) for a total of 10 doses administered every other day. To monitor tumor burden, the serum level of soluble human interleukin-6 receptor (shuIL-6R) was measured, which is first detectable 3-4 weeks after INA-6 tumor engraftment. […] Mice were sacrificed 33 days after INA-6 cell injection and evaluated for MM tumor burden by fluorescence imaging, histologic analysis, and anti-CD34 staining. […] Similar to the CRC model, local angiogenesis was suppressed in SAH-BCL9B-treated SCID-hu mice, as monitored by anti-CD34 staining and blood vessel quantitation (FIG. 4I).
For the SCID-hu murine model of human MM, human fetal bone grafts measuring 1.5×0.5 cm were subcutaneously implanted into eight week old male CB-17 SCID mice (Taconic) as previously described (Tassone, P. et al. Blood 106, 713-6 (2005)). Four weeks after bone implantation, 5×10^6 GFP-positive INA-6 MM cells were injected directly into each bone implant. Two days later, mice were treated with 100 μl injections of vehicle (2.5% DMSO in D5W) or SAH-BCL9 peptides (5 mg/kg) instilled adjacent to the bone chips on alternate days for a total of 10 doses. Mouse sera were serially monitored for shuIL-6R levels by ELISA (R&D Systems). Thirty-three days after tumor cell injection, the mice were sacrificed and analyzed for tumor burden by fluorescence imaging and histologic analysis of the bone grafts. See results in FIG. 4A-FIG. 4I. In addition, TUNEL staining was performed on samples obtained from the mice. […] See results in FIG. 22 and FIG. 23. All animal experiments were performed in accordance with approved protocols of the Dana-Farber Cancer Institute Animal Care and Use Committee.

Molecule	β-catenin interaction by co-immunoprecipitation (β-catenin)	shuIL-6R serum levels ([1]; 10 doses)	local angiogenesis (anti-CD34 staining, blood vessel quantitation) ([1]; 5 mg/kg local, 10 doses)	tumor burden within the bone chip ([1]; 5 mg/kg local, 10 doses, day 33)	TUNEL positivity in myeloma tumor tissue ([1]; bone chips bearing INA-6 cells)	tumor cell invasion outside the bone chip ([1]; day 33)
CCCC[C@H](NC(=O)[C@H](CCCNC(=N)N)NC(=O)[C@H](CCC(N)=O)NC(=O)[C@@H](NC(=O)C1(C)CCCC=CCCCC(C)(NC(=O)[C@H](CC(C)C)NC(=O)[C@H](CO)NC(=O)[C@H](CCCNC(=N)N)NC(=O)[C@H](CCC(=O)O)NC(=O)[C@H](CCCNC(=N)N)NC(=O)[C@H](Cc2c[nH]cn2)NC(=O)[C@H](CCC(=O)O)NC(=O)[C@H](CC(C)C)NC(=O)[C@H](CCC(N)=O)NC(=O)[C@H](CCC(=O)O)NC(=O)[C@H](CCC(N)=O)NC(=O)[C@H](CO)NC(=O)[C@H](CC(C)C)NC(C)=O)C(=O)N[C@@H]([C@@H](C)O)C(=O)N[C@@H](CC(C)C)C(=O)N[C@@H](CCCNC(=N)N)C(=O)N1)[C@@H](C)CC)C(=O)N[C@@H](CC(C)C)C(=O)N[C@@H](Cc1ccccc1)C(N)=O (stereo partly drawn) [SAH-BCL9B] (Ac-LSQEQLEHRERSL[ξαMeNle(6-ylidene)]TLR[ξαMeNle(6-ylidene)]IQR[Nle]LF-NH2; staple 14-18)	most effective β-catenin interactor in situ	low to undetectable levels	suppressed	significantly reduced	notably increased TUNEL positivity	resided within the confines of the bone chip
SAH-BCL9B(R359E): SEQ ID NO: 7: LSQEQLEHEERSLXTLRXIQRBLF; reverse polarity point mutant, negative control of SAH-BCL9B	impaired β-catenin interaction	progressive increase in shuIL-6R levels	–	–	–	invasion into the surrounding soft tissue
